pEC50: −log10 of the molar value. Values joined by “and” are separate entries in the source; they are usually repeats but may differ in a detail not shown here. Equal values may be shown once. Read-outs that look alike come from different tables or passages of the source.
Assays:
MRGPRX4 + RAMP3 = biological target: T1, MRGPRX4 + RAMP3 (Homo sapiens, UniProt Q96LA9); assay: IP1 accumulation, MRGPRX4 coexpressed with RAMP3; assay type: cell-based; parameters: key to IP1 Basal / response to agonist, X4:ramp3.I:0.25 / response to agonist, X4:ramp3.I:0.5 / response to agonist, X4:ramp3.I:1: % IP1; unstimulated mock = 0%, fully stimulated MRGPRX4 = 100%; details: for pEC50: read-out: IP1 EC50; for Emax: read-out: IP1 Emax; for IP1 accumulation (normalized): MRGPRX4+RAMP3 1pg 1:1, Supplementary Figure 5f, 5g
T1 construct: expressed in transfected cells; host or cells: HEK293T
T1 sequence (Q96LA9 whole entry): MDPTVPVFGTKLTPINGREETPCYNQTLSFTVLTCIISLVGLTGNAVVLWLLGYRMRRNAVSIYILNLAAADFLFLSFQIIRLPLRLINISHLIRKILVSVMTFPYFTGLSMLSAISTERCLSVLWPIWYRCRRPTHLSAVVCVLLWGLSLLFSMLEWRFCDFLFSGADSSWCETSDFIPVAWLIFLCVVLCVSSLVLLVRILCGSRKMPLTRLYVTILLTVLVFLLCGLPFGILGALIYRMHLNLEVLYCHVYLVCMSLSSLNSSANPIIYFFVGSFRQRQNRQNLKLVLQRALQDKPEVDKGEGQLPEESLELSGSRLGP

MRGPRX4 = biological target: T2, MRGPRX4 (Homo sapiens, UniProt Q96LA9); assay: BRET2 β-arrestin1 recruitment to MRGPRX4; assay type: cell-based; details: for net BRET2 ratio, βArr1 recruitment: Fig 5a, 100µM ligand, replicate values, listed as Ng
T2 construct: expressed in transfected cells; host or cells: HEK293T
T2 sequence (Q96LA9 whole entry): as above
Experimental: The method for homogenous transfection of β-Arrestin and BRET^2 assay of β-Arrestin recruitment has been described previously ([51]). […] BRET^2 measurements were taken on the BioTek Synergy NEO2 microplate reader.
For MRGPRX4 DNA titration assays, HEK293T cells were cotransfected with either β-Arrestin1 or β-Arrestin2 with increasing amounts of MRGPRX4 (0.5, 1, or 2 pg/cell).
The BRET ratio for each sample was determined by calculating the ratio of the light intensity emitted by the GFP10 (515 nm) (acceptor) over the light intensity emitted by the RLuc3 (395 nm) (donor). Net BRET^2 was determined by subtracting the basal BRET^2 (β-arrestin-RLuc3 only) signal from the BRET^2 signals. All BRET values were normalized to the MRGPRX4-only condition.

[1] = MRGPRX4 + RAMP3 0.25 pg (Fig. S3), normalized per agonist
[2] = MRGPRX4 + RAMP3 0.5 pg (Fig. S3), normalized per agonist
[3] = MRGPRX4 + RAMP3 1 pg (Fig. S3), normalized per agonist
[4] = MRGPRX4 + RAMP3 2 pg (Fig. S3), normalized per agonist
[5] = Tet-On MRGPRX4:RAMP3 Ratio 1:0.5 (Fig. S5F)
[6] = Tet-On MRGPRX4:RAMP3 Ratio 1:0.75 (Fig. S5F)
[7] = Tet-On MRGPRX4:RAMP3 Ratio 1:1 (Fig. S5F)

Structure (SMILES): CC(C)[C@H]1CC[C@H](C(=O)N[C@H](Cc2ccccc2)C(=O)O)CC1 [Nateglinide]
- EC50 (MRGPRX4 + RAMP3; Figure 4a top, DNA ratio MRGPRX4:RAMP3 1:1, individual replicates, read-out: potency (converted)): 11 µM and 13.4 µM and 7.31 µM
- response to agonist, X4:ramp3.I:0.25 (MRGPRX4 + RAMP3; Figure 4c-f, agonist 100µM, X4:ramp3 1:0.25, MRGPRX4 = 100): 78.1524 and 81.0936
- response to agonist, X4:ramp3.I:0.5 (MRGPRX4 + RAMP3; Figure 4c-f, agonist 100µM, X4:ramp3 1:0.5, MRGPRX4 = 100): 74.9289 and 71.6542
- response to agonist, X4:ramp3.I:1 (MRGPRX4 + RAMP3; Figure 4c-f, agonist 100µM, X4:ramp3 1:1, MRGPRX4 = 100): 57.9146 and 58.6922
- IP1 Basal (MRGPRX4 + RAMP3; [1]): 18.35
- IP1 span (top minus basal of the concentration-response fit) (MRGPRX4 + RAMP3; [1]): 72%
- pEC50 (MRGPRX4 + RAMP3; [1]): 5.13
- Emax (MRGPRX4 + RAMP3; [1]): 90.3%
- IP1 Basal (MRGPRX4 + RAMP3; [2]): 17.78
- IP1 span (top minus basal of the concentration-response fit) (MRGPRX4 + RAMP3; [2]): 70.5%
- pEC50 (MRGPRX4 + RAMP3; [2]): 4.98
- Emax (MRGPRX4 + RAMP3; [2]): 88.3%
- IP1 Basal (MRGPRX4 + RAMP3; [3]): 13.65
- IP1 span (top minus basal of the concentration-response fit) (MRGPRX4 + RAMP3; [3]): 76.8%
- pEC50 (MRGPRX4 + RAMP3; [3]): 4.92
- Emax (MRGPRX4 + RAMP3; [3]): 90.4%
- IP1 Basal (MRGPRX4 + RAMP3; [4]): 11.70
- IP1 span (top minus basal of the concentration-response fit) (MRGPRX4 + RAMP3; [4]): 79.7%
- pEC50 (MRGPRX4 + RAMP3; [4]): 4.84
- Emax (MRGPRX4 + RAMP3; [4]): 91.3%
- IP1 Basal (MRGPRX4 + RAMP3; [5]): 10.08
- IP1 span (top minus basal of the concentration-response fit) (MRGPRX4 + RAMP3; [5]): 83.3%
- pEC50 (MRGPRX4 + RAMP3; [5]): 5.14
- Emax (MRGPRX4 + RAMP3; [5]): 93.4%
- IP1 Basal (MRGPRX4 + RAMP3; [6]): 8.392
- IP1 span (top minus basal of the concentration-response fit) (MRGPRX4 + RAMP3; [6]): 72.2%
- pEC50 (MRGPRX4 + RAMP3; [6]): 5.15
- Emax (MRGPRX4 + RAMP3; [6]): 80.5%
- IP1 Basal (MRGPRX4 + RAMP3; [7]): 9.885
- IP1 span (top minus basal of the concentration-response fit) (MRGPRX4 + RAMP3; [7]): 71.3%
- pEC50 (MRGPRX4 + RAMP3; [7]): 5.06
- Emax (MRGPRX4 + RAMP3; [7]): 81.2%
- IP1 accumulation (normalized) (MRGPRX4 + RAMP3; log [nateglinide] (M) -4): 57.5355 and 90.9736 and 62.9483
- IP1 accumulation (normalized) (MRGPRX4 + RAMP3; log [nateglinide] (M) -4.69897): 50.3774 and 62.0079 and 49.4001
- IP1 accumulation (normalized) (MRGPRX4 + RAMP3; log [nateglinide] (M) -5.39794): 23.5136 and 36.2384 and 24.8216
- IP1 accumulation (normalized) (MRGPRX4 + RAMP3; log [nateglinide] (M) -6.09691): 12.0843 and 16.5706 and 10.8044
- IP1 accumulation (normalized) (MRGPRX4 + RAMP3; log [nateglinide] (M) -7.49485): 6.988 and 11.3646 and 7.305
- β-arrestin1 recruitment to MRGPRX4 (MRGPRX4; 100 μM agonist (Fig. 5A)): very low β-arrestin1 recruitment
- net BRET2 ratio, βArr1 recruitment (MRGPRX4; MRGPRX4 20ng, 0.5 pg DNA/cell): 0.001598 and 0.001911 and 0.001766 and 0.001511 and 0.001907 and 0.001761 and 0.001482 and 0.001441 and 0.001223 and 0.001859 and 0.001157 and 0.001231 and 0.00136 and 0.0008839 and 0.000388 and 0.001053 and 0.001203 and 0.000951 and 0.0007681 and 0.0005323 and 0.0008933 and 0.0008719 and 0.001239 and 0.001046 and 0.001091
- net BRET2 ratio, βArr1 recruitment (MRGPRX4; MRGPRX4 40ng, 1 pg DNA/cell): 0.001875 and 0.002517 and 0.002385 and 0.001913 and 0.002075 and 0.001709 and 0.001872 and 0.002414 and 0.002488 and 0.001826 and 0.002129 and 0.001258 and 0.0007412 and 0.002042 and 0.001771 and 0.001548 and 0.001966 and 0.0009568 and 0.001828 and 0.001183 and 0.001043 and 0.001073 and 0.0007023 and 0.00193 and 0.002589 and 0.001421 and 0.00209
- net BRET2 ratio, βArr1 recruitment (MRGPRX4; MRGPRX4 80ng, 2 pg DNA/cell): 0.002996 and 0.002474 and 0.002377 and 0.001821 and 0.003223 and 0.002725 and 0.001839 and 0.003232 and 0.002812 and 0.002723 and 0.003057 and 0.001936 and 0.00205 and 0.002139 and 0.001864 and 0.00174 and 0.001944 and 0.002317 and 0.002724
- net BRET2 ratio, βArr1 recruitment (MRGPRX4; βArr1 only, 0 pg MRGPRX4 DNA/cell): 0.0003439 and -7.335e-5 and -0.0002706 and -9.392e-5 and -0.0001296 and 0.0002236 and -2.118e-6 and -0.0001045 and 0.0001067 and 0.000324 and -0.0001421 and -0.0001819 and 0.0002245 and -0.0001005 and -0.000124 and -9.463e-5 and 0.0003743 and -0.0002797 and -0.0002549 and 6.253e-5 and 0.0001923 and 0.0001254 and -0.000481 and 0.0003557 and 0.0001817 and -2.148e-5 and -0.0001602
